The text below walks through data of ChEMBL document CHEMBL4342462, “Discovery and Characterization of 2,5-Substituted Benzoic Acid Dual Inhibitors of the Anti-apoptotic Mcl-1 and Bfl-1 Proteins” (J Med Chem, 2020).

Molecules are shown by their SMILES. pKd, pKi: −log10 of the molar value. The source made the active and inactive calls. No cut-off for these calls is given here.

The target in assay [1] is T1, Bcl-2-related protein A1 (Homo sapiens, UniProt Q16548).
T1 sequence (Q16548 whole entry): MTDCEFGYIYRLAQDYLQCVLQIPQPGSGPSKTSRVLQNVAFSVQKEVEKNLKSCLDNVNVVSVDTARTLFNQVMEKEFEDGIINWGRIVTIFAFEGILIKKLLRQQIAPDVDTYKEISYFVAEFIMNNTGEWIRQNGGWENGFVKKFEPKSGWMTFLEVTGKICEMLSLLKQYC

The target in assay [2] is T2, Induced myeloid leukemia cell differentiation protein Mcl-1 (Homo sapiens, UniProt Q07820).
T2 sequence (Q07820 whole entry): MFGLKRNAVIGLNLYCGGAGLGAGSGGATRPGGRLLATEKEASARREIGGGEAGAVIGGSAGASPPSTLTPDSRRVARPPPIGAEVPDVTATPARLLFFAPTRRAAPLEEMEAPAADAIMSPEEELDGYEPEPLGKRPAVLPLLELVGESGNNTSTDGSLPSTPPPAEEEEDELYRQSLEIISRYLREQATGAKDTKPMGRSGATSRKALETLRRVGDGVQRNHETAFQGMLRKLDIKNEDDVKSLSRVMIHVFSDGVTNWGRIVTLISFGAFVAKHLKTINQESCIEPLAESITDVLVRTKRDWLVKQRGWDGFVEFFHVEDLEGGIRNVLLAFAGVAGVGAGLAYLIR
Description: Inhibition of N-terminal His6-tagged human Mcl1 expressed in Escherichia coli Rosetta2 DE3 by fluorescent labeled Flu-Bid peptide based fluorescence polarization assay
Assay [3] has as its target T3, Bcl-2-like protein 1 (Homo sapiens, UniProt Q07817).
For assay [4], the target named is T4, Apoptosis regulator Bcl-2 (Homo sapiens, UniProt P10415).
T4 sequence (P10415 whole entry): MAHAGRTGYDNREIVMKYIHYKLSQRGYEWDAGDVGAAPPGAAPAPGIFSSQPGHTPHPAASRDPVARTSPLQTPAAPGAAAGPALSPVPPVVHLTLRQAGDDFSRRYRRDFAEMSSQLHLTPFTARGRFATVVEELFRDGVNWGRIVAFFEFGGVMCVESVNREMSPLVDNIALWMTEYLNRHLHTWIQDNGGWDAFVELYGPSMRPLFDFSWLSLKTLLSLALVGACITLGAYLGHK
Assay [5] has as its target T4, Apoptosis regulator Bcl-2. Put plainly: Inhibition of Bcl2 (unknown origin) expressed in Eu-Myc cells assessed as induction of cell death at 75 to 100 uM incubated for 24 hrs by violet LIVE/DEAD fixable dead cell staining based flow cytometry.
Assay [6] addresses T2, Induced myeloid leukemia cell differentiation protein Mcl-1. The source holds these as a separate data set.
Description: Binding affinity to immobilized biotin-labeled and N-terminal His6-tagged human Mcl-1 expressed in Escherichia coli Rosetta2 DE3 by biolayer interferometry
Assay [7] addresses T5, Bcl-2-related protein A1 (Homo sapiens) (UniProt Q16548).
T5 sequence (whole entry): T1 sequence (Q16548 whole entry)

In assay [8] the target is T1, Bcl-2-related protein A1. This is another data set of the same source.
For assay [9], the target named is T3, Bcl-2-like protein 1. Briefly: Inhibition of Bcl-xL (unknown origin) expressed in Eu-Myc cells assessed as induction of cell death at 75 to 100 uM incubated for 24 hrs by violet LIVE/DEAD fixable dead cell staining based flow cytometry. For orientation: In flow cytometry, cells or beads pass a laser one at a time.

T3 sequence (Q07817 whole entry): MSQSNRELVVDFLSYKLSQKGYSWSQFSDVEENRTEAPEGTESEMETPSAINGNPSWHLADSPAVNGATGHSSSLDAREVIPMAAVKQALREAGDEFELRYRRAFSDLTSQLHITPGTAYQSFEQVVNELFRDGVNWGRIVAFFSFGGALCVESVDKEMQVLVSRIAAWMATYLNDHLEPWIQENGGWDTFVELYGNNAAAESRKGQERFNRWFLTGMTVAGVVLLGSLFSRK

For the molecule `O=C(O)c1cc(SCCc2ccccc2)ccc1NS(=O)(=O)CCc1ccccc1`, the negative logarithm of the Ki (pKi) (on Bcl-2-related protein A1 [1]; in [2]) was 5.77 in each case.

For `CC(C)(C)c1ccc(N2CCN(S(=O)(=O)Nc3ccc(SCCc4cccc(O)c4)cc3C(=O)O)CC2)cc1`, the pKi is 6.60 on Bcl-2-related protein A1 [1] and 6.54 in assay [2].

Regarding `Nc1ccc(SCCc2ccccc2)cc1C(=O)O`, the pKi was 5.43 on Bcl-2-related protein A1 [1] and 5.47 in assay [2].

For the molecule `O=C(O)c1cc(SCCc2ccccc2)ccc1NS(=O)(=O)N1CCN(Cc2ccccc2)CC1`, the pKi is 6.00 at Bcl-2-related protein A1 [1] and 6.08 in [2].

In the case of `O=C(O)c1cc(SCCc2ccccc2)ccc1NS(=O)(=O)c1ccc(Br)cc1`, the pKi (on Bcl-2-related protein A1 [1]; in assay [2]) was 6.09 throughout.

As to `O=C(O)c1cc(SCCc2ccccc2)ccc1NS(=O)(=O)N1CCN(c2ccccc2)CC1`, the negative logarithm of the Ki (pKi) on Bcl-2-like protein 1 [3] was 5.18; in [4], 4.93; on Bcl-2-related protein A1 [1], 6.12; in assay [2], 6.24.

`CC(C)(C)c1ccc(N2CCN(S(=O)(=O)Nc3ccc(SCCC(=O)Nc4ccccc4)cc3C(=O)O)CC2)cc1`: the pKi on Bcl-2-like protein 1 [3] was less than 4.60; on Bcl-2-related protein A1 [1], 5.96; in [2] it was 6.02.

For the molecule `O=C(O)c1cc(OCCc2ccccc2)ccc1NS(=O)(=O)c1ccccc1`, the values for the pKi (at Bcl-2-related protein A1 [1]; in [2]) were 4.97 and 5.21, respectively.

Take `O=C(CCc1ccccc1)Nc1ccc(NS(=O)(=O)c2ccccc2)c(C(=O)O)c1`: the pKi on Bcl-2-related protein A1 [1] was 4.21; in [2], 4.72.

On to `CC(C)(C)c1ccc(N2CCN(S(=O)(=O)Nc3ccc(SCCc4ccccc4)cc3C(=O)O)CC2)cc1`, for which the inhibition entry (in assay [5]; at Bcl-2-like protein 1 [9]) was “Active” throughout. Further, the results for the pKd (in assay [6]; at Bcl-2-related protein A1 [8]) were 6.31 and 6.04, respectively. Also, the pKi is 5.46 at Bcl-2-like protein 1 [3], 5.92 in [4], 7.08 at Bcl-2-related protein A1 [1] and 7.14 in assay [2]. Also, in assay [7], the result was Active.

Regarding `O=C(O)c1cc(SCCc2ccccc2)ccc1NS(=O)(=O)c1ccc(-c2ccccc2)nc1`, the pKi on Bcl-2-related protein A1 [1] was 6.55; in [2], 6.70.

On to `O=C(O)c1cc(SCCc2ccccc2)ccc1NS(=O)(=O)c1cccs1`, for which the pKi was 5.47 at Bcl-2-related protein A1 [1] and 5.70 in assay [2].

Regarding `O=C(Nc1ccc(SCCc2ccccc2)cc1C(=O)O)c1ccccc1`, the pKi at Bcl-2-related protein A1 [1] is 5.34; in [2], 5.57.

For the molecule `O=C(CCSc1ccc(NS(=O)(=O)c2ccccc2)c(C(=O)O)c1)Nc1ccccc1`, the negative-log Ki (pKi) at Bcl-2-related protein A1 [1] is 4.83; in assay [2], 4.88.

Take `O=C(O)c1ccccc1NS(=O)(=O)c1ccccc1`: the pKi on Bcl-2-related protein A1 [1] was less than 4.00; in [2], 4.32.

For the molecule `COc1cccc(CCSc2ccc(NS(=O)(=O)N3CCN(c4ccc(C(C)(C)C)cc4)CC3)c(C(=O)O)c2)c1`, the pKi on Bcl-2-like protein 1 [3] was 5.17; in assay [4] it was 5.92; at Bcl-2-related protein A1 [1] it was 7.00; in assay [2] it was 7.13.

For `O=C(O)c1cc(SCCc2ccccc2)ccc1NS(=O)(=O)c1ccccc1`, the pKi is less than 4.60 at Bcl-2-like protein 1 [3], less than 4.60 in [4], 5.80 on Bcl-2-related protein A1 [1] and 5.82 in assay [2].

Take `O=C(O)c1cc(SCCc2ccccc2)ccc1NS(=O)(=O)c1ccc(-c2ccccc2)cc1`: the pKi is 6.82 on Bcl-2-related protein A1 [1] and 7.05 in [2].

On to `O=C(O)c1cc(SCc2ccccc2)ccc1NS(=O)(=O)c1ccccc1`, for which the pKi on Bcl-2-related protein A1 [1] is 5.52; in assay [2] it was 5.59.

For `O=C(Cc1ccccc1)Nc1ccc(NS(=O)(=O)c2ccccc2)c(C(=O)O)c1`, the negative logarithm of the Ki (pKi) on Bcl-2-related protein A1 [1] is less than 4.15; in assay [2], 4.15.

With `O=C(O)c1cc(SCCc2ccccc2)ccc1NS(=O)(=O)c1ccc(C2CCCCC2)cc1`, the figures for the pKi (on Bcl-2-related protein A1 [1]; in [2]) were 6.77 and 7.06, respectively.

Regarding `O=C(O)c1cc(NCCc2ccccc2)ccc1NS(=O)(=O)c1ccccc1`, the pKi was 5.42 at Bcl-2-related protein A1 [1] and 5.33 in assay [2].

For `O=C(CCCSc1ccc(NS(=O)(=O)c2ccccc2)c(C(=O)O)c1)Nc1ccccc1`, the negative logarithm of the Ki (pKi) at Bcl-2-related protein A1 [1] is less than 4.15; in assay [2], 4.48.

In the case of `O=C(O)c1cc(SCCc2ccccc2)ccc1NS(=O)(=O)N1CCC(c2ccccc2)CC1`, the negative logarithm of the Ki (pKi) at Bcl-2-related protein A1 [1] was 6.41; in assay [2] it was 6.48.

The pKi is −log10 of the Ki, conventionally taken in molar units. High values mean a low Ki, low ones a high Ki. What is called pKd is the Kd on a negative log10 scale, so that one unit is a factor of ten. Read a low pKd as a large Kd.
